Data from patent US5670506A, “Halogen, isothiocyanate or azide substituted xanthines” (Cell Therapeutics, Inc., priority 1993, dated 1997).

Key:
[1] = tested on: ras-transformed NIH/3T3 cells
LPAAT = test: formation of remodeled PA (LPAAT), in vitro; assay type: cell-based; details: high PTX concentrations
Excerpt: Even in the presence of PTX, cells continue to form PA through the action of PLD, and DAG is also formed through the action of phospholipase C on PC and PI. The latter pathway are not inhibited by the inventive compounds or PTX. In PTX-treated cells, DAG derived from remodeled and PLA-generated PA is diminished (e.g., 1,2-sn-dioleoyl DAG, 1-alkyl,2-linoleoyl DAG and 1-alkyl,2-docosahexaneolyl DAG). Therefore, the inventive compounds and PTX inhibit the formation of only a certain species of PA and DAG by selectively inhibiting a specific second messenger pathway that is only activated in cells by noxious stimuli, but is not used to signal normal cellular housekeeping functions.

[2] = tested on: polymorphonuclear leukocytes; details: in response to a stimulator of chemotaxis; U.S. Pat. No. 4,636,507; cited from earlier work
PAPH = PAPH blockade in a specific activation pathway; assay type: cell-based, human; details: specific activation pathway that does not involve PI
Excerpt: The compounds and pharmaceutical compositions of the invention include inhibitors of subspecies of LPAAT and PAPH enzymes with substrate specificity for intermediates with 1,2-diunsaturated and 1-alkyl, 2-unsaturated subspecies. One representative example of such an inhibitor (although not within the genus of inventive compounds) is PTX. […] It should be emphasized that the compounds of the invention affect that subset of PAPH and LPAAT that relates to substrates with unsaturated fatty acids other than arachidonate in the sn-2 position, not the housekeeping forms of these enzymes that serve the PI pathway.

TNF = details: human, in vivo; cited from earlier work
[3] = tested on: ras-transformed NIH/3T3 cells; test: serum-stimulated generation of DAG and PA in ras-transformed NIH/3T3 cells; assay type: cell-based; details: pretreatment of cells
Excerpt: For example, activating ras mutations result in increased generation of DAG on stimulation with mitogens, although the sources of DAG have differed between experimental systems. In nontransformed renal mesangial cells, IL-1β stimulation increased PLA2 and LPAAT activation, resulting in generation of sn-2 unsaturated PA and subsequent hydrolysis to DAG by phosphatidate phosphohydrolase. The ras transformation in NIH/3T3 cells upregulates serum-stimulated generation of DAG and PA. The specific species of DAG that is stimulated by serum is dioleoyl and for PA are dilinoleoyl and dioleoyl. […] The inhibition occurs either through suppressing the generation of PA de novo from lysoPA, or through inhibition of one or both arms of the Lands cycle. […] Therefore, the ras transformation mediates an upregulation of PA through indirect stimulation of PLA2 and/or LPAAT activity.

[4] = U.S. Pat. Nos. 4,515,795 and 4,576,947; cited from earlier work
murine splenocytes = test: inhibition of murine splenocyte proliferation stimulated by anti-mu and IL-4; assay type: cell-based; details: FIG. 5; anti-mu (10 μg/ml) and IL-4 (12.5 ng/ml)
Description: Drug was added to the cells at the doses indicated two hours prior to activation with anti-mu and IL-4. This in vitro assay is a model for immune suppression and treatment or prevention of autoimmune diseases. […] Background counts were less than 200 cpm.
There are a series of in vitro assays that can be used to measure immunosuppressive activity of a particular compound. These assays are a predictive model for treatment or prevention of autoimmune diseases, such as diabetes, lupus, arthritis, and the like. A first assay measures immunosuppressive activity of a drug at the B cell level. Spleens from adult mice contain immature B cells that express surface IgM. Cross-linking the surface IgM with an anti-mu antibody results in B cell proliferation. Additionally, this activation results in an increased expression of interleukin-4 receptors(IL-4R) on the surface of such cells. IL-4 acts as a growth factor for B cells and will increase the amount of proliferation induced by anti-mu. In the first assay, a mixture of anti-mu and murine IL-4 is added to murine splenocytes to cause their proliferation. Mice spleens are obtained from adult mice and a single cell suspension is prepared in RPMI 1640 medium supplemented with 10% FCS. […] Proliferation is determined on the third day with a pulse of tritiated thymidine. […]

[5] = tested on: mixed lymphocyte assay culture (PBMC); test: percent viable cells in mixed lymphocyte assay culture after six days; assay type: cell-based, human; details: 100 μM
Description: Control cells that have not been exposed to a drug are generally 78 to 85% viable under such culture conditions. For this graph, all of the compounds were present at 100 μM, which is usually well above their IC50 concentration in this assay (see FIG. 1).

human stromal cells = test: inhibition of proliferation of human stromal cells stimulated with PDGF; assay type: cell-based
Description: (§1) This assay is a model for restenosis and treatment of atherosclerosis and coronary artery disease. Stromal cells were starved in serum-free media for one day and then stimulated with 50 ng/ml PDGF-BB. The drags were added at the indicated concentrations one hour prior to PDGF stimulation. Tritiated thymidine was added for one day at the time of PDGF stimulation and the cells were harvested and counted by liquid scintillation counting 24 hrs later. Background counts (i.e., starved cells) were approximately 1% of control levels.
Another assay for measuring activity of the inventive compounds involves determining PDGF (platelet derived growth factor) proliferative response using human-derived stromal cells. Human stromal cells are plated (e.g., about 2000 cells per well) in defined media (e.g., 69% McCoy's, 12.5% fetal calf serum, 12.5% horse serum, 1% antibiotics, 1% glutamine, 1% vitamin supplement, 0.8% essential amino acids, 1% sodium pyruvate, 1% sodium bicarbonate, 0.4% non-essential amino acids and 0.36% hydrocortisone). Two to three days later, the stromal cells are starved in serum-free media. Twenty four hours later, the cells are treated with a stimulating agent, such as PDGF-AA, PDGF-BB or basic FGF (fibroblast growth factor) with or without IL-1α or TNF, and tritiated thymidine. Cell proliferation is determined by liquid scintillation counting.
as §1, with “drugs” for “drags”

murine thymocytes = test: inhibition of murine thymocyte proliferation stimulated by ConA and IL-1α; assay type: cell-based, murine (Balb/C mice); details: FIG. 4, 4 days
Description: The drugs (inventive compounds) were added to the cells at the doses indicated two hours prior to activation with ConA and IL-1α. […] Background counts were less than 200 cpm. This in vitro assay is a model for immune suppression and treatment or prevention of autoimmune diseases.
A third assay measures an ability of an inventive compound to inhibit IL-2-induced proliferation of murine thymocytes. Thymus glands are obtained from 4-6 week old mice and plated as a single cell suspension into flat bottomed wells in RPMI 1640 medium supplemented with 10% fetal calf serum. The inventive compounds are added to appropriate wells and the cells are incubated for 1-2 hrs. Concanavilin A (ConA, 0.25 μg/ml) and IL-1 (20 ng/ml) are added and the plates are incubated for 4 days. Cell proliferation is determined as above. There are also variations for this assay that follow the same basic stimulation and measure inhibition of proliferation format. […]
This example illustrates the effect of CT1514, CT1525, CT1527, CT1529, CT1577, CT1583, CT1589, CT1595, CT2519, CT1205, CT1801 and CT1908 on inhibition of murine thymocyte proliferation stimulated by Concanavalin A (ConA) and interleukin-2 (IL-2) (FIG. 4). […] The cells were harvested and incorporated tritiated thymidine was determined in a liquid scintillation counter. […]

[6] = tested on: TNF release from monocytes in whole blood; test: ex vivo human TNF model, LPS-mediated TNF release in whole blood; assay type: cell-based; details: FIG. 14
Description: (§2) This model adds LPS to whole blood (normal human volunteers) to trigger a dose-dependent synthesis and extracellular release of TNF according to Desch et al. (Lymphokine Res. 8:141, 1989). The ex vivo model examines whether LPS-mediated release of TNF from monocytes in whole blood can be block by an inventive compound.
An ex vivo human sepsis model is described in Desch et al., Lymphokine Res. 8:141, 1989 and in Ooi et al., J. Exp. Med. 174:649, 1991. Briefly, whole blood from humans is incubated with LPS (endotoxin). TNF released from cells (mostly from monocytes) is measured. The inventive compounds lower TNF levels as compared with untreated controls in this model.
as §2, with “This example illustrates a comparative experiment comparing CT1595, CT1529 and CT2519 in an ex vivo human TNF model described herein. This assay is a predictive model for treatment and prevention of septic shock and sepsis syndrome. This” for “This”

[7] = tested on: CMV promoter activity in transformed (adenovirus) cells; test: CMV promoter assay (gene transcription and translation, cytotoxic activity); assay type: cell-based
Excerpt: This example illustrates data regarding proliferative activity of various inventive compounds for inducting CMV promoter activity. The CMV promoter assay measures gene transcription and translation activity wherein any active compounds will nave cytotoxic activity to inhibit cellular protein synthesis machinery in transformed (adenovirus) cells.

Row | SMILES | cytotoxicity associated with inhibition of ras-transformed cells [1] | inhibition of ras-transformed NIH/3T3 cells ([1]; vs parental cells) | formation of remodeled PA (LPAAT) | stimulation of chemotaxis in polymorphonuclear leukocytes [2] | PAPH block (PAPH) | TNF levels in normal volunteers (TNF) | generation of phospholipid second messengers (DAG, PA) [3] | cerebral blood flow [4] | inhibition of splenocyte proliferation (murine splenocytes) | viability in MLR culture [5] | inhibition of human stromal cell proliferation (human stromal cells; FIG. 7, 50 ng/ml PDGF-BB, in words) | IC50 (human stromal cells; Homo sapiens, read-out: IC50, inhibition of human stromal cell proliferation) | inhibition of thymocyte proliferation (murine thymocytes) | block of LPS-mediated TNF release [6] | cytotoxicity in CMV promoter assay ([7]; in words) | IC50 ([7]; read-out: IC50 (μM), CMV promoter assay)
1 | CC(=O)CCCCn1c(=O)c2c(ncn2C)n(C)c1=O [PTX, 1-(5-oxohexyl)-3,7-dimethylxanthine] | not associated with significant cytotoxicity | inhibits ras-transformed NIH/3T3 cells more than parental cells | blocks formation of remodeled PA | stimulate chemotaxis | blocks PAPH | TNF levels were higher among PTX recipients | blocks generation of these phospholipid second messengers |  |  |  |  |  |  |  |  | 
2 | CC(O)CCCCn1c(=O)c2c(ncn2C)n(C)c1=O (centres unmarked) [M1, 1-(5-hydroxyhexyl)-3,7-dimethylxanthine] |  |  |  | stimulate chemotaxis |  |  |  | increasing cerebral blood flow |  |  |  |  |  |  |  | 
3 | CC(CCCCn1c(=O)c2c(ncn2C)n(C)c1=O)N=C=S (centres unmarked) [CT2519, 1-(5-isothiocyanatohexyl)-3,7-dimethylxanthine] |  |  |  |  |  |  |  |  | most potent inhibitors of splenocyte proliferation in a dose-response manner | not cytotoxic at 100 μM | strongly inhibit proliferation | < 10 µM | most potent drugs | could block TNF release in a dose-dependent fashion | most cytotoxic compound tested | 10 µM
